From patent US4438029A, “Synthetic peptides” (Research Corporation, priority 1979, dated 1984)
Ends that are not written are not given here.

tested on: guinea pig ileum strips; assay: Contraction of guinea pig ileum strips in Tyrode's solution; assay type: cell-based; details: Table I; per 10 ml of solution; full contraction; guinea pig ileum strips with Tyrode's solution
Method: ^b Amount of peptide per 10 ml of solution to contract fully guinea
pig ileum strips with Tyrode's solution.
^b Amount of peptide per 10 ml of Tyrode's solution to fully contract
a guinea pig ileum strip.

Question: How did the “Activity (amount of peptide per 10 ml of solution to contract fully guinea pig ileum strips)” value turn out when “ASHLGLAR [No. 5, L-Alanyl-L-seryl-L-histidyl-L-leucyl-glycyl-L-leucyl-L-alanyl-L-arginine]” was run?
Answer: 5 to 8 nmol

Question: With “Ac-ASHLGLAR [No. 6, CH3 CO--Ala-Ser-His-Leu-Gly-Leu-Ala-Arg]” as the substance, how does the “Activity (amount of peptide per 10 ml of solution to contract fully guinea pig ileum strips)” value read?
Answer: 8 to 12 nmol

same assay, conditions: Table II; per 10 ml of Tyrode's solution; full contraction; guinea pig ileum strip

Question: “Ac-ALGLAR [CH3 CO--Ala-Leu-Gly-Leu-Ala-Arg]” was tested. Which “Ileum Activity (amount of peptide per 10 ml of Tyrode's solution to fully contract a guinea pig ileum strip)” value did it give?
Answer: 19 to 38 nmol

Question: “Ac-AAALGLAR [CH3 CO--Ala-Ala-Ala-Leu-Gly-Leu-Ala-Arg]” was tested. Which “Ileum Activity (amount of peptide per 10 ml of Tyrode's solution to fully contract a guinea pig ileum strip)” value did it give?
Answer: 7 to 13 nmol

Question: Which “Ileum Activity (amount of peptide per 10 ml of Tyrode's solution to fully contract a guinea pig ileum strip)” value does the source give for Ac-LGLAR [CH3 CO--Leu-Gly-Leu-Ala-Arg] here?
Answer: 36 to 45 nmol

Question: For “Ac-HLGLAR [CH3 CO--His-Leu-Gly-Leu-Ala-Arg]”, which “Ileum Activity (amount of peptide per 10 ml of Tyrode's solution to fully contract a guinea pig ileum strip)” value is on record?
Answer: 8 to 17 nmol
